Laboratory results: US20240287052A1, “NOVEL OXAZOLE DERIVATIVE AND PHARMACEUTICAL COMPOSITION FOR PREVENTING OR TREATING ALLERGIC DISEASES COMPRISING THE SAME” (AZCURIS CO., LTD., priority 2021, published 2024)
Like-named read-outs stand apart in the source and are kept apart here.

Biological target: T1, IL33 and ST2 binding (Homo sapiens, UniProt O95760)
T1 sequence (O95760 112-270 limits assumed): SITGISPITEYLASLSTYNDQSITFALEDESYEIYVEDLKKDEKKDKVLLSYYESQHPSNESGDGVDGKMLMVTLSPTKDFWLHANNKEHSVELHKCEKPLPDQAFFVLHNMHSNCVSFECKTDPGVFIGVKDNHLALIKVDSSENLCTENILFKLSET
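Note: plate ELISA with coated Flag-tagged human IL-33 and His-tagged human ST2, bound ST2 detected by anti-His HRP and TMB absorbance at 450 nm, 2 h compound incubation.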

Protocol: 100 nM of Flag tagged IL-33 human recombinant protein was prepared in 1× coating buffer (Biolegend) and placed in a 96 well microplate (Coming) using a Multichannel pipette (Gilson) and coated for at least 12 hours at 4° C.
After washing three times with PBST (1×PBS (Welgene), 1% Tween 20 (sigma)), it was reacted with 1% BSA (Bovogen) blocking buffer for 1 hour at room temperature.
Samples containing 200 nM of His-tagged ST2 human recombinant protein and 60 μM or 200 μM Example synthetic compounds were prepared, added in equal volumes, and reacted for at least 2 hours at room temperature.
After washing three times with PBST (1×PBS (Welgene), 1% Tween 20 (sigma)), anti-His HRP (BioLegend) antibody was diluted 5000:1 and reacted for at least 1 hour at room temperature.
After washing three times with PBST (1×PBS (Welgene), 1% Tween 20 (sigma)), TMB substrate solution (Thermo) was added and reacted for more than 5 minutes. The reaction was stopped by adding 1 N HCl (Samchun) and the absorbance value was obtained at 450 nm after orbital shaking for 5 s with a Microplate reader (Tecan, Spark®).
The results derived from the program linked to the microplate reader were analyzed using an Excel program. IL33-ST2 binding rate (binding %) was calculated by averaging the three values obtained in triplicate, subtracting the positive control value, and converting the negative control value to 100%. The inhibition % value of each compound was obtained by subtracting the IL33-ST2 binding % from 100%, and the error range of triplicate was also obtained and reflected in the inhibition graph of the compound.

Row | inhibition (30 µM) [%] | inhibition (100 µM) [%] | SMILES
1 | 1 | 36 | CN1CCN(CCNC(=O)c2nc(-c3ccc(OC(F)(F)F)cc3)oc2-c2ccccc2)CC1 [Compound 204, N-(2-(4-Methylpiperazin-1-yl)ethyl)-5-phenyl-2-(4-(trifluoromethoxy)phenyl)oxazole-4-carboxamide]
2 | 24 | 36 | CN1CCN(CCNC(=O)c2nc(-c3ccccc3C(F)(F)F)oc2-c2ccccc2)CC1 [Compound 118, N-(2-(4-Methylpiperazin-1-yl)ethyl)-5-phenyl-2-(2-(trifluoromethyl)phenyl)oxazole-4-carboxamide]
3 | 41 | 46 | CS(=O)(=O)N1CCN(CCNC(=O)c2nc(-c3ccc(C(F)(F)F)cc3)oc2-c2ccccc2[N+](=O)[O-])CC1 [Compound 287, N-(2-(4-(methylsulfonyl)piperazin-1-yl)ethyl)-5-(2-nitrophenyl)-2-(4-(trifluoromethyl)phenyl)oxazole-4-carboxamide]
4 | -28 | -16 | CN(C)CCNC(=O)c1nc(-c2cccc(F)c2)oc1-c1ccccc1[N+](=O)[O-] [Compound 222, N-(2-(Dimethylamino)ethyl)-2-(3-fluorophenyl)-5-(2-nitrophenyl)oxazole-4-carboxamide]
5 | 46 | 84 | COc1ccc(-c2nc(C(=O)N3CCN(CCN(C)C)CC3)c(-c3ccccc3[N+](=O)[O-])o2)cc1 [Compound 216, (4-(2-(Dimethylamino)ethyl)piperazin-1-yl)(2-(4-methoxyphenyl)-5-(2-nitrophenyl)oxazol-4-yl)methanone]
6 | 35 | 49 | CN1CCN(CCNC(=O)c2nc(-c3ccc4ccccc4c3)oc2-c2ccccc2)CC1 [Compound 258, N-(2-(4-Methylpiperazin-1-yl)ethyl)-2-(naphthalen-2-yl)-5-phenyloxazole-4-carboxamide]
7 | 14 | 5 | COc1ccc(CNC(=O)c2nc(-c3ccc(C(F)(F)F)cc3)oc2-c2ccccc2[N+](=O)[O-])cc1 [Compound 166, N-(4-Methoxybenzyl)-5-(2-nitrophenyl)-2-(4-(trifluoromethyl)phenyl)oxazole-4-carboxamide]
8 | 24 | 43 | CN(C)CCN1CCN(C(=O)c2nc(-c3ccc(F)cc3)oc2-c2ccccc2[N+](=O)[O-])CC1 [Compound 228, (4-(2-(Dimethylamino)ethyl)piperazin-1-yl)(2-(4-fluorophenyl)-5-(2-nitrophenyl)oxazol-4-yl)methanone]
9 | 32 | 39 | COc1ccc(-c2nc(C(=O)N3CCN(CCN(C)C)CC3)c(-c3ccc([N+](=O)[O-])cc3)o2)cc1 [Compound 218, (4-(2-(Dimethylamino)ethyl)piperazin-1-yl)(2-(4-methoxyphenyl)-5-(4-nitrophenyl)oxazol-4-yl)methanone]
10 | 7 | 40 | CN1CCN(CCNC(=O)c2nc(-c3ccccc3C(F)(F)F)oc2-c2ccccc2[N+](=O)[O-])CC1 [Compound 120, N-(2-(4-Methylpiperazin-1-yl)ethyl)-5-(2-nitrophenyl)-2-(2-(trifluoromethyl)phenyl)oxazole-4-carboxamide]
11 | -29 | 10 | CN1CCN(CCNC(=O)c2nc(-c3ccc(C(C)(C)C)cc3)oc2-c2ccccc2)CC1 [Compound 266, 2-(4-(tert-butyl)phenyl)-N-(2-(4-methylpiperazin-1-yl)ethyl)-5-phenyloxazole-4-carboxamide]
12 | -27 | -27 | CN(C)CCNC(=O)c1nc(-c2ccc(F)c(F)c2)oc1-c1ccccc1[N+](=O)[O-] [Compound 233, 2-(3,4-Difluorophenyl)-N-(2-(dimethylamino)ethyl)-5-(2-nitrophenyl)oxazole-4-carboxamide]
13 | 18 | 33 | CC(=O)N1CCN(CCNC(=O)c2nc(-c3cc(F)cc(F)c3)oc2-c2ccccc2[N+](=O)[O-])CC1 [Compound 286, N-(2-(4-Acetylpiperazin-1-yl)ethyl)-2-(3,5-difluorophenyl)-5-(2-nitrophenyl)oxazole-4-carboxamide]
14 | -19 | -34 | O=C(c1nc(-c2ccc(C(F)(F)F)cc2)oc1-c1ccccc1[N+](=O)[O-])N1CCCCC1 [Compound 144, (5-(2-Nitrophenyl)-2-(4-(trifluoromethyl)phenyl)oxazol-4-yl)(piperidin-1-yl)methanone]
15 | 18 | 29 | COCCNC(=O)c1nc(-c2ccc(C(F)(F)F)cc2)oc1-c1ccccc1[N+](=O)[O-] [Compound 160, N-(2-Methoxyethyl)-5-(2-nitrophenyl)-2-(4-(trifluoromethyl)phenyl)oxazole-4-carboxamide]
16 | 9 | 23 | CN1CCN(CCNC(=O)c2nc(-c3ccc4ccccc4c3)oc2-c2ccccc2[N+](=O)[O-])CC1 [Compound 260, N-(2-(4-Methylpiperazin-1-yl)ethyl)-2-(naphthalen-2-yl)-5-(2-nitrophenyl)oxazole-4-carboxamide]
17 | -14 | -12 | CN(C)CCNC(=O)c1nc(-c2cccc(Cl)c2)oc1-c1ccccc1[N+](=O)[O-] [Compound 242, 2-(3-Chlorophenyl)-N-(2-(dimethylamino)ethyl)-5-(2-nitrophenyl)oxazole-4-carboxamide]

Row | inhibition (30 µM) [%] | inhibition (100 µM) [%] | SMILES
18 | -20 | -18 | CN(C)CCNC(=O)c1nc(-c2cccc(C(F)(F)F)c2)oc1-c1ccccc1 [Compound 121, N-(2-(Dimethylamino)ethyl)-5-phenyl-2-(3-(trifluoromethyl)phenyl)oxazole-4-carboxamide]
19 | 8 | 32 | CN1CCN(CCNC(=O)c2nc(-c3ccc(Cl)cc3)oc2-c2ccccc2[N+](=O)[O-])CC1 [Compound 247, 2-(4-Chlorophenyl)-N-(2-(4-methylpiperazin-1-yl)ethyl)-5-(2-nitrophenyl)oxazole-4-carboxamide]
20 | -16 | -11 | O=C(c1nc(-c2ccc(C(F)(F)F)cc2)oc1-c1ccccc1[N+](=O)[O-])N1CCC(O)CC1 [Compound 161, (4-Hydroxypiperidin-1-yl)(5-(2-nitrophenyl)-2-(4-(trifluoromethyl)phenyl)oxazol-4-yl)methanone]
21 | 13 | 20 | COc1cccc(-c2nc(C(=O)NCCN3CCN(C)CC3)c(-c3ccccc3[N+](=O)[O-])o2)c1 [Compound 211, 2-(3-methoxyphenyl)-N-(2-(4-methylpiperazin-1-yl)ethyl)-5-(2-nitrophenyl)oxazole-4-carboxamide]
22 | 73 | 71 | O=C(NCCN1CCNCC1)c1nc(-c2ccc(C(F)(F)F)cc2)oc1-c1ccccc1[N+](=O)[O-] [Compound 281, 5-(2-nitrophenyl)-N-(2-(piperazin-1-yl)ethyl)-2-(4-(trifluoromethyl)phenyl)oxazole-4-carboxamide]
23 | -2 | -14 | CN(C)CCNC(=O)c1nc(-c2cccc(F)c2)oc1-c1ccccc1 [Compound 220, N-(2-(Dimethylamino)ethyl)-2-(3-fluorophenyl)-5-phenyloxazole-4-carboxamide]
24 | -26 | -22 | COc1ccc(-c2nc(C(=O)NCCN(C)C)c(-c3ccccc3)o2)cc1 [Compound 212, N-(2-(Dimethylamino)ethyl)-2-(4-methoxyphenyl)-5-phenyloxazole-4-carboxamide]
25 | 3 | 5 | O=C(c1ccc(N2CCCCC2)cc1)c1nc(-c2ccc(C(F)(F)F)cc2)oc1-c1ccccc1[N+](=O)[O-] [Compound 162, (5-(2-Nitrophenyl)-2-(4-(trifluoromethyl)phenyl)oxazol-4-yl)(4-(piperidin-1-yl)phenyl)methanone]
26 | -54 | -98 | CN(C)CCNC(=O)c1nc(-c2ccc(F)cc2)oc1-c1ccc([N+](=O)[O-])cc1 [Compound 229, N-(2-(Dimethylamino)ethyl)-2-(4-fluorophenyl)-5-(4-nitrophenyl)oxazole-4-carboxamide]
27 | 13 | 35 | CCOC(=O)c1nc(-c2ccc(OC)cc2)oc1-c1ccc([N+](=O)[O-])cc1 [Compound 64, Ethyl 2-(4-methoxyphenyl)-5-(4-nitrophenyl)oxazole-4-carboxylate]
28 | 34 | 84 | CCOC(=O)c1nc(-c2ccccc2C(F)(F)F)oc1-c1ccccc1 [Compound 27, Ethyl 5-phenyl-2-(2-(trifluoromethyl)phenyl)oxazole-4-carboxylate]
29 |  | 45 | CCOC(=O)c1coc(-c2ccc(SC)cc2)n1 [Compound 22, Ethyl 2-(4-(methylthio)phenyl)oxazole-4-carboxylate]
30 | 20 | 37 | CCN(CC)CCNC(=O)c1nc(-c2ccc(C(C)(C)C)cc2)oc1-c1ccccc1[N+](=O)[O-] [Compound 270, 2-(4-(tert-Butyl)phenyl)-N-(2-(diethylamino)ethyl)-5-(2-nitrophenyl)oxazole-4-carboxamide]
31 | 22 | 15 | O=C(NCCCN1CCOCC1)c1nc(-c2ccc(C(F)(F)F)cc2)oc1-c1ccccc1[N+](=O)[O-] [Compound 157, N-(3-Morpholinopropyl)-5-(2-nitrophenyl)-2-(4-(trifluoromethyl)phenyl)oxazole-4-carboxamide]
32 | -35 | -10 | CN(C)CCNC(=O)c1nc(-c2ccc(N(C)C)cc2)oc1-c1ccccc1[N+](=O)[O-] [Compound 263, N-(2-(Dimethylamino)ethyl)-2-(4-(dimethylamino)phenyl)-5-(2-nitrophenyl)oxazole-4-carboxamide]
33 | 19 | -2 | CCOC(=O)c1nc(-c2ccc(C(F)(F)F)cc2)oc1-c1ccc(N(C(C)=O)C(C)=O)cc1 [Compound 109, Ethyl 5-(4-(N-acetylacetamido)phenyl)-2-(4-(trifluoromethyl)phenyl)oxazole-4-carboxylate]
